Source: publication PMC11996864, “A small-molecule inhibitor of BCL10-MALT1 interaction abrogates progression of diffuse large B cell lymphoma” (The Journal of Clinical Investigation, 2025)
Values joined by “and” are separate entries in the source; they are usually repeats but may differ in a detail not shown here. Equal entries are not always repeated.

Key:
OCI-Ly3 xenografts = test: OCI-Ly3 xenograft in NSG mice; type: in vivo, mouse; conditions: daily i.p., vs DMSO, result in words
From the text: TMD8 cells were engrafted into 8-week-old female NOD.CB17-Prkdc^scid/J (NOD-SCID) mice from The Jackson Laboratory by subcutaneous injection of 10 × 10^6 cells resuspended in 50% Cultrex Basement Membrane Extract (R&D Systems, catalog 3632-010-02) into the right flank. OCI-Ly3 cells were engrafted into 5-week-old female NOD.Cg-Prkdc^scid Il2rg^tm1Wjl/SzJ (NSG) mice from The Jackson Laboratory by subcutaneous injection of 2.5 × 10^6 cells resuspended in Cultrex as above. OCI-Ly1 cells were engrafted into 6.5-week-old female NSG mice from The Jackson Laboratory by subcutaneous injection of 20 × 10^6 cells resuspended in Cultrex as above. For all xenograft models, when tumors reached an average volume of 100 mm^3, mice were randomized to receive M1i-124 (50 mg/kg i.p. per day), or equivalent volume of DMSO vehicle (50 μL i.p. per day). […] Tumor size was measured 3 times a week using a caliper and calculated using the formula (smallest diameter^2 × largest diameter)/2. Mice were sacrificed 24 hours after the last injection. Mice were sacrificed when the largest tumors reached 2,500 mm^3. For TMD8 xenograft experiments, tumors and various organs, including lung, heart, liver, and kidney, were collected and fixed in 10% buffered formalin, embedded in FFPE blocks, sectioned, and stained with H&E. Sections were evaluated by a board-certified pathologist.

[1] = system: BCL10 and MALT1 mRNA in TMD8 cells; test: BCL10 and MALT1 mRNA expression, qRT-PCR; type: cell-based, human
Method: Transfection. HEK293T or HepG2 BCL10-/- cells (used only in Supplemental Figure 1 where indicated) were transiently transfected at approximately 80% confluence using Lipofectamine 3000 (ThermoFisher, Cat# L3000015) per manufacture instructions. Cells were lysed in buffer (150 mM NaCl, 2 mM EDTA, 10% glycerol, 1% Nonidet P-40, 20 mM Tris Hcl, pH 7.4) containing protease and phosphatase inhibitors (Thermo Scientific, Cat#78446) at 24 hours for HEK293T cells or 48 hours for HepG2 BCL10-/- cells.
Immunoprecipitation. Cells were rinsed in PBS and lysed in buffer (150 mM NaCl, 2 mM EDTA, 10% glycerol, 1% Nonidet P-40, 20 mM Tris HCl, pH 7.4) containing protease and phosphatase inhibitors (Thermo Scientific, Cat#78446). Supernatants were incubated with anti-Myc tag agarose beads (Takara, Cat# 631208) or anti-HA tag matrix (Roche, Cat# 11815016001) overnight at 4°C with gentle rotation. Beads were then pelleted at 1000 rpm for 2 min and washed 3-4 times with buffer. Antibody-protein conjugates were removed from beads by boiling for ~5-8 minutes in 2x Laemmli sample buffer (Bio-Rad Laboratories, Cat# 161073) containing 2-mercaptoethanol, and samples were then subjected to SDS-PAGE and immunoblotting.
Antibodies for western blots. The HRP-conjugated anti-HA (clone 3F10, Cat# 12013819001) and anti-HA (clone 3F10, Cat# 11867423001) antibodies were purchased from Sigma. The anti-phospho-IKKα(Ser176)/ IKKβ(Ser177) (clone C84E11, Cat# 2078), rabbit anti-GAPDH (clone […]
were purchased from Cell Signaling Technology. The mouse anti-GAPDH (clone 6C5, Cat# sc- […]
anti-IKKα/β (clone H-470, Cat# sc-7607) antibodies were purchased from Santa Cruz. The anti-N4BP1 antibody (Cat# CPA2415) was purchased from Cohesion Biosciences. The anti-mouse (Cat# W4021) and anti-rabbit (Cat# W4011) HRP-conjugated secondaries were purchased from Promega. The anti-Rat HRP-conjugated secondary was purchased from Cell Signaling […]
qRT-PCR. Jurkat T cells grown in serum free media for 4 hours with indicated inhibitors prior to stimulation with PMA/Ionomycin for 4 hours. […]

[2] = system: all CYP enzymes tested (CYP1A2, CYP2C9, CYP2C19, CYP2D6, CYP3A4); test: Reversible CYP inhibition, all enzymes tested; type: in vitro ADME; conditions: both sexes, human, pooled human liver microsomes; read-out: IC50 against all CYP enzymes tested
Method: Pharmacokinetic and cytochrome P450 inhibition studies. Studies were performed with the assistance of Touchstone Biosciences (Plymouth Meeting, Pennsylvania). […]
For reversible CYP […]
inhibition studies, different concentrations of M1i-124 were added to 0.2 mg/ml pooled, mixed-gender human liver microsomes (HLM). Each CYP450 isoform-specific probe substrate (CYP1A2, CYP2C9, CYP2C19, CYP2D6, and CYP3A4) was incubated individually with HLM and M1i-124 or corresponding positive control inhibitor (Phenacetin, Tolbutamaide, S-Mephenytoin, Dextromethorphan, Midazolam, and Testosterone). Samples were analyzed for metabolites of the probe substrates by LC-MS/MS at each of the test compound concentrations. A decrease in the formation of the metabolites compared to vehicle control was used to calculate the […]

TMD8 cells = test: CellTiter-Glo ATP viability; type: cell-based, human

O=S(=O)(NCc1ccc2c(c1)OCO2)c1ccc(Cc2ccc(S(=O)(=O)NCc3ccc4c(c3)OCO4)cc2)cc1 [M1i-124]
OCI-Ly3 xenograft tumor growth (OCI-Ly3 xenografts): significant decrease in tumor growth
BCL10 mRNA (normalized) ([1]; TMD8, 1 μM, 24 hrs): 1.022 and 1.024 and 1.305
MALT1 mRNA (normalized) ([1]; TMD8, 1 μM, 24 hrs): 0.842 and 0.979 and 1.096
BCL10 and MALT1 mRNA levels ([1]; TMD8, result in words): modest time-dependent upregulation
IC50 [2]: > 10 µM
Percent cell viability (ATP luminescence) (TMD8 cells; TMD8, M1i-124 (µM) 0.02): 98.5399% and 121.237% and 91.8987%
Percent cell viability (ATP luminescence) (TMD8 cells; TMD8, M1i-124 (µM) 0.05): 110.558% and 93.9485% and 106.792%
Percent cell viability (ATP luminescence) (TMD8 cells; TMD8, M1i-124 (µM) 0.1): 120.312% and 100.889%
Percent cell viability (ATP luminescence) (TMD8 cells; TMD8, M1i-124 (µM) 0.2): 81.1675% and 99.7783% and 71.7208%
